Measurements from patent US20020103120A1, “Regulation of human phosphodiesterase-like enzyme” (priority 2000, published 2002).
Values joined by “and” are separate entries in the source; they are usually repeats but may differ in a detail not shown here. Equal entries are not always repeated.

Experiments:
PDE11A4 [1] = target: T1, PDE11A4 (Homo sapiens, UniProt Q9HCR9); assay: PDE11A4 scintillation proximity assay (SPA), inhibition of [3H]-cGMP hydrolysis; assay type: biochemical; details: 0.4 μM [3H]-cGMP, 1 ng PDE11A4, RT 1 h, His-tagged recombinant enzyme
T1 construct: His-tag (N); made in house; host or cells: Sf21 insect cells (baculovirus)
T1 sequence (Q9HCR9 whole entry): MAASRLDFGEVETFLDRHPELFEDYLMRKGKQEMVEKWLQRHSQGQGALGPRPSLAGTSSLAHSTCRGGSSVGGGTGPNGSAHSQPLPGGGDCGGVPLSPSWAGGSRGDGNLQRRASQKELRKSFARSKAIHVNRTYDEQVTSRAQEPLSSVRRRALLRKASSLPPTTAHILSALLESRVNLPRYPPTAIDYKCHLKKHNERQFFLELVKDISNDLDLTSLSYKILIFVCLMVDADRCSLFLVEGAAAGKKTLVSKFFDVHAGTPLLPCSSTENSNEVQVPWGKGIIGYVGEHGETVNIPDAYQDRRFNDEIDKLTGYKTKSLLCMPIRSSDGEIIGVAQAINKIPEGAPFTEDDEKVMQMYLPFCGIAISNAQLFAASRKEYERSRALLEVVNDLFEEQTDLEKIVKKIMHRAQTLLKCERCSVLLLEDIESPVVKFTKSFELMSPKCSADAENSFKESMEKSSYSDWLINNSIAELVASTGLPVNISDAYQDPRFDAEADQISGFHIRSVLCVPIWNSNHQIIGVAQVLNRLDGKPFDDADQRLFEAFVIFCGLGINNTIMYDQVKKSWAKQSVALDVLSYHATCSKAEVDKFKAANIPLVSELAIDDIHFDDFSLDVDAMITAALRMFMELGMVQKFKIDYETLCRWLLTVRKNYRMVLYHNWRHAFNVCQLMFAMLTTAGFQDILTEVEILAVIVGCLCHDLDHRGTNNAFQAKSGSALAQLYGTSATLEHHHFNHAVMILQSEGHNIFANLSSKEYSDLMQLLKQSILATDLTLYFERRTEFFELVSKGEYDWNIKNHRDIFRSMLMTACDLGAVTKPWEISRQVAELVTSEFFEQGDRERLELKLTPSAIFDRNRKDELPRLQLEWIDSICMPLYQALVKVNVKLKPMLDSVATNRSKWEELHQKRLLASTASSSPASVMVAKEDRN
Procedure: Effect of IBMX and dipyridamole was tested. Assays were performed in 384-well white plates in 20 μl containing the indicated concentration of inhibitor, 0.4 μM [^3H]-cGMP (0.025 μCi/well) and 1 ng PDE11A4 in 50 mM Tris-HCl, pH 7.5, 8.3 mM MgCl2, 1.7 mM EGTA, 0.5 mg/ml BSA. Reaction mixtures were incubated at RT for 1 h, then quenched with 30 μl of 18 mM ZnSO4 containing 0.15 mg Yttrium SPA PDE beads. The assay plates were sealed, allowed to settle for 30 min at RT, and counted on a TopCount NTX microscintillation counter (Packard). Reactions were run in triplicate.

PDE11A4 [2] = target: T1, PDE11A4; assay: Lineweaver-Burk analysis of PDE11A4 SPA to determine Km for cGMP; assay type: biochemical; details: 1 ng PDE11A4, various cGMP concentrations, RT, 0-90 min
Procedure: FIG. 17. Lineweaver-Burk analysis to determine Km values for cGMP. Reaction mixtures (20 μl/well) containing 1 ng PDE11A4 and various concentrations of cGMP (1.25 mCi/μmol) were incubated at RT. At various time points between 0 and 90 min the reactions were stopped with 30 μl of 18 mM ZnSO4 containing 0.15 mg Yttrium SPA PDE beads. The assay plates were sealed, allowed to settle for 30 min at RT, and counted on a TopCount NTX microscintillation counter (Packard). Reactions were run in triplicate. A, Time courses of PDE11A4 reaction with various concentration of cGMP. B, Lineweaver-Burk analysis. The Km value for cGMP was determined as 0.4 μM.
Expression of recombinant PDE11A4 was examined by baculovirus expression system in Sf21 cells with or without His-tag at the N-terminus. Since both expression level and enzyme activity of the His-tagged PDE11A4 (His-PDE11A4) was much higher than those of non-tagged enzyme (FIG. 15), His-PDE11A4 was selected for further use. The maximum expression level and activity were obtained from the cells cultured 24 to 48 h after transfection. The His-PDE11A4 was successfully purified by Ni^2+-chelating column chromatography (FIG. 16). The assay was carried out in scintillation proximity assay (SPA) using cGMP as substrate. Km value for cGMP was determined to be 0.4 μM (FIG. 17). […]

human PDE-like enzyme = assay: Expression of human PDE-like enzyme by Western blotting in oligonucleotide-treated HCT116 cells; assay type: cell-based; details: HCT116, oligonucleotide added for seven days
Procedure: The cell line used for testing is the human colon cancer cell line HCT116. Cells are cultured in RPMI-1640 with 10-15% fetal calf serum at a concentration of 10,000 cells per milliliter in a volume of 0.5 ml and kept at 37° C. in a 95% air/5%CO2 atmosphere.
Phosphorothioate […] are synthesized on an Applied Biosystems Model 380B DNA synthesizer using phosphoroamidite chemistry. A sequence of 24 bases complementary to the nucleotides at position 1 to 24 of SEQ ID NO: 1 is used as the test oligonucleotide. As a control, another (random) sequence is used: 5′-TCAACTGACTAGATGTACATGGAC-3′. Following assembly and deprotection, oligonucleotides are ethanol-precipitated twice, dried, and suspended in phosphate buffered saline at the desired concentration. Purity of the oligonucleotides is tested by capillary gel electrophoresis and ion exchange HPLC. The purified oligonucleotides are added to the culture medium at a concentration of […] once per day for seven days.
This effect is not observed with the control oligonucleotide. After 3 to 7 days, the number of cells in the cultures is counted using an automatic cell counter. The number of cells in cultures treated with the test oligonucleotide (expressed as 100%) is compared with the number of cells in cultures treated with the control oligonucleotide.

## CC(C)Cn1c(=O)n(C)c(=O)c2[nH]cnc21 [IBMX]
PDE11A4 [1]
  IC50: 41 µM and 41.3 µM

## Nc1nc2c(ncn2[C@@H]2O[C@@H]3COP(=O)(O)O[C@H]3[C@H]2O)c(=O)[nH]1 [cGMP]
PDE11A4 [2]
  Km: 0.4 µM

## control oligonucleotide: control (random) sequence 5′-TCAACTGACTAGATGTACATGGAC-3′ (DNA TCAACTGACTAGATGTACATGGAC; chemistry not given here)
Human PDE-like enzyme
  expression of human PDE-like enzyme (Western blotting): not observed
